Laboratory results published in US8853213B2, “Bicyclic compound for modulating G protein-coupled receptors” (Hanmi Pharm. Co., Ltd, priority 2011, dated 2014).

biological target: T1, GPR119 (Homo sapiens, UniProt Q8TDV5); assay: Controlling Effect of GPR119 in CRE-bla CHO-K1 Cells (EC50); format: cell-based; settings: GPR119 CRE-bla CHO-K1 cell line, 5 hr incubation with compound, β-lactamase LiveBLAzer-FRET B/G readout; read-out: controlling effect against GPR119 in CRE-bla CHO-K1 cell line (EC50)
T1 construct: host or cells: CHO-K1 (CRE-bla reporter, doxycycline-induced)
T1 sequence (Q8TDV5 1-335): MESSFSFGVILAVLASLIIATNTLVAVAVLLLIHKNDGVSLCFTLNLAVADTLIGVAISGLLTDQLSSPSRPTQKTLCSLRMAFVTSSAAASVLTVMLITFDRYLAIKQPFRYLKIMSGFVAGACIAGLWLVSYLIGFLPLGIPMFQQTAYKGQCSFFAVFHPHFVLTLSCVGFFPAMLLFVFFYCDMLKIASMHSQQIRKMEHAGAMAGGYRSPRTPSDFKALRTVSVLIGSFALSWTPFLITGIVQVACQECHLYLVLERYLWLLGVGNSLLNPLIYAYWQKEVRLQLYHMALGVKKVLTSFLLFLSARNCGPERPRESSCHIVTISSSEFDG
Method: Controlling Effect of GPR119 in CRE-bla CHO-K1 Cells (EC50)
The day before the experiment, GPR119 CRE-bla CHO-K1 cell line purchased from Invitrogen was seeded in a 96 black well plate in an amount of 80 μl at a density of 5×10^4 cells. After the seeding, 10 μl of doxycycline in a concentration of 1 μg/ml was added to each well and incubated in an incubator at 37° C. under 5% CO2 for about 16 to 20 hr.
The day of experiment, sample compounds were performed a 10-fold serial dilution with a culture medium at various concentrations of 1 uM to […]. Considering that the culture medium used in the seeding and doxycycline are together applied, the sample compounds were diluted to a 5-fold dilution of the planned concentration. 20 μl of the compound diluted with the culture medium was added to each well and incubated in the incubator for 5 hr. The compound-untreated group was added with 20 μl of 0.5% dimethyl sulfoxide (DMSO) diluted with the culture medium. After 5 hr from the incubation, substrate mixture of a 6-fold concentration were prepared; 6 μl of 1 mM LiveBLAzer™-FRET B/G(CCF4-AM) substrate, 60 μl of solution B, 904 μl of solution C and 30 μl of solution D. 12 μl of the substrate mixture was added to each well and allowed to be kept at room temperature for 2 hr with shading the light. Fluorescence intensity value of blue channel and green channel was determined by a fluorescence microplate reader at 409 nm/460 nm and 409 nm/[…] (excitation/emission), respectively. In order to confirm the controlling effect of the inventive compounds against GPR119, EC50 (half maximal effective concentration) was determined based on the determined values. EC50, the concentration at which 50% activity of β-lactamase, was determined according to the following Equation: Equation=[(Ti−Tz)/(C−Tz)]×100
[Wherein, Ti: Cell density of the compound-treated group; Tz: Cell density of the negative control group; and C: Cell density of the positive control group]

Row | Compound | EC50 [nM]
1 | CS(=O)(=O)c1ccc(-c2csc3c(OC4CCN(c5ncccn5)CC4)ncnc23)c(F)c1 [Example 85, 7-(2-fluoro-4-methanesulfonyl-phenyl)-4-(1-pyrimidin-2-yl-piperidin-4-yloxy)-thieno[3,2-d]pyrimidine] | < 100
2 | CS(=O)(=O)c1ccc(-c2csc3c(OC4CCN(c5nc(C6CCC6)no5)CC4)ncnc23)cc1 [Example 54, 3-cyclobutyl-5-(4-(7-(4-methanesulfonyl-phenyl)thieno[3,2-d]pyrimidin-4-yloxy)piperidin-1-yl)-1,2,4-oxadiazole] | < 100
3 | CCc1cnc(N2CCC(Oc3ncnc4c(-c5ccc(S(C)(=O)=O)cc5F)csc34)CC2)nc1 [Example 81, 4-[1-(5-ethylpyrimidin-2-yl)-piperidin-4-yloxy]-7-(2-fluoro-4-methanesulfonyl-phenyl)-thieno[3,2-d]pyrimidine] | < 100
4 | CCCc1cnc(N2CCC(Oc3ncnc4c(-c5ccc(S(C)(=O)=O)cc5F)cn(CC)c34)CC2)nc1 [Example 34, 5-ethyl-7-(2-fluoro-4-methanesulfonyl-phenyl)-4-(1-(5-propylpyrimidin-2-yl)piperidin-4-yloxy)-5H-pyrrolo[3,2-d]pyrimidine] | < 100
5 | CCc1cnc(N2CCC(Oc3ncnc4c(-c5ccc(F)nc5)cn(C)c34)CC2)nc1 [Example 48, 4-(1-(5-ethylpyrimidin-2-yl)piperidin-4-yloxy)-7-(6-fluoropyridin-3-yl)-5-methyl-5H-pyrrolo[3,2-d]pyrimidine] | > 1000
6 | CC(C)c1noc(C2CCN(c3ncnc4c(-c5ccc(S(C)(=O)=O)cc5)cn(C)c34)CC2)n1 [Example 117, 3-isopropyl-5-(1-(5-methyl-7-(4-methanesulfonyl-phenyl)-5H-pyrrolo[3,2-d]pyrimidin-4-yl)piperidin-4-yl)-1,2,4-oxadiazole] | 100 to 1000
7 | CC(C)OC(=O)N1CCC(Oc2ncnc3c(-c4ccc(S(C)(=O)=O)cc4F)csc23)CC1 [Example 73, isopropyl 4-(7-(2-fluoro-4-methanesulfonyl-phenyl)thieno[3,2-d]pyrimidin-4-yloxy)piperidin-1-carboxylate] | < 100
8 | CN(c1ncnc2c(-c3ccc(S(C)(=O)=O)cc3)csc12)C1CCN(C(=O)OC(C)(C)C)CC1 [Example 112, tert-butyl 4-(methyl(7-(4-methanesulfonyl-phenyl)thieno[3,2-d]pyrimidin-4-yl)amino)piperidin-1-carboxylate] | < 100
9 | Cn1cc(-c2ccc(S(C)(=O)=O)cc2F)c2ncnc(OC3CCN(c4ncc(C(F)(F)F)cn4)CC3)c21 [Example 31, 7-(2-fluoro-4-methanesulfonyl-phenyl)-5-methyl-4-(1-(5-(trifluoromethyl)pyrimidin-2-yl)piperidin-4-yloxy)-5H-pyrrolo[3,2-d]pyrimidine] | < 100
10 | CS(=O)(=O)c1ccc(-c2csc3c(N4CCC(c5nc(C6CCCC6)no5)CC4)ncnc23)cc1 [Example 6, 3-cyclopentyl-5-(1-(7-(4-methanesulfonyl-phenyl)thieno[3,2-d]pyrimidin-4-yl)piperidin-4-yl)-1,2,4-oxadiazole] | < 100
11 | CC(C)c1noc(C2CCN(c3ncnc4c(-c5ccc(-n6cnnn6)cc5)csc34)CC2)n1 [Example 118, 5-(1-(7-(4-(1H-tetrazol-1-yl)phenyl)thieno[3,2-d]pyrimidin-4-yl)piperidin-4-yl)-3-iso propyl-1,2,4-oxadiazole] | 100 to 1000
12 | CC(C)c1noc(N2CCN(c3ncnc4c(-c5ccc(S(C)(=O)=O)cc5)csc34)CC2)n1 [Example 9, 3-isopropyl-5-(4-(7-(4-methanesulfonyl-phenyl)thieno[3,2-d]pyrimidin-4-yl)piperazin-1-yl)-1,2,4-oxadiazole] | 100 to 1000
13 | COC(=O)c1ccc(-c2csc3c(N4CCC(c5nc(C(C)C)no5)CC4)ncnc23)cc1 [Example 16, 4-{4-[4-(3-isopropyl-[1,2,4]oxadiazol-5-yl)-piperidin-1-yl]-thieno[3,2-d]pyrimidin-7-yl}-benzoic acid methyl ester] | 100 to 1000
14 | CS(=O)(=O)c1ccc(-c2csc3c(OC4CCNCC4)ncnc23)c(F)c1 [Example 76, 7-(2-fluoro-4-methanesulfonyl-phenyl)-4-[piperidin-4-yloxy]thieno[3,2-d]pyrimidine] | > 1000
15 | CC(C)c1noc(N2CCC(Oc3ncnc4c(-c5ccc(S(=O)(=O)C6CCCC6)cc5)csc34)CC2)n1 [Example 108, 7-(4-cyclopentylsulfonyl-phenyl)-4-[1-(3-isopropyl-[1,2,4]oxadiazol-5-yl)-piperidin-4-yloxy]-thieno[3,2-d]pyrimidine] | < 100
16 | CS(=O)(=O)c1ccc(-c2csc3c(N4CCC(c5nc(C6CC6)no5)CC4)ncnc23)cc1 [Example 1, 3-cyclopropyl-5-(1-(7-(4-methanesulfonyl-phenyl)thieno[3,2-d]pyrimidin-4-yl)piperidin-4-yl)-1,2,4-oxadiazole] | < 100

Next, values leading:

Row | EC50 [nM] | Compound
17 | < 100 | CCCS(=O)(=O)c1ccc(-c2csc3c(OC4CCN(c5nc(C(C)C)no5)CC4)ncnc23)c(F)c1 [Example 107, 7-(2-fluoro-(4-propylsulfonyl)-phenyl)-4-[1-(3-isopropyl-[1,2,4]oxadiazol-5-yl)-piperidin-4-yloxy]-thieno[3,2-d]pyrimidine]
18 | < 100 | CC(C)c1noc(N2CCC(Oc3ncnc4c(-c5ccc(S(C)(=O)=O)cc5F)csc34)CC2)n1 [Example 60, 7-(2-fluoro-4-methanesulfonyl-phenyl)-4-[1-(3-isopropyl-[1,2,4]oxadiazol-5-yl)piperidin-4-yloxy]thieno[3,2-d]pyrimidine]
19 | < 100 | COc1ccc(-c2csc3c(OC4CCN(c5nc(C(C)C)no5)CC4)ncnc23)c(Cl)c1 [Example 96, 5-(4-(7-(2-chloro-4-methoxyphenyl)thieno[3,2-d]pyrimidin-4-yloxy)piperidin-1-yl)-3-isopropyl-1,2,4-oxadiazole]
20 | < 100 | CCC(C)c1noc(N2CCC(Oc3ncnc4c(-c5ccc(S(C)(=O)=O)cc5F)csc34)CC2)n1 (centres unmarked) [Example 62, 3-sec-butyl-5-(4-(7-(2-fluoro-4-methanesulfonyl-phenyl)thieno[3,2-d]pyrimidin-4-yloxy)piperidin-1-yl)-1,2,4-oxadiazole]
21 | < 100 | CC(C)Cc1noc(N2CCC(Oc3ncnc4c(-c5ccc(S(C)(=O)=O)cc5F)csc34)CC2)n1 [Example 78, 7-(2-fluoro-4-methanesulfonyl-phenyl)-4-[1-(3-isobutyl-[1,2,4]oxadiazol-5-yl)piperidin-4-yloxy]thieno[3,2-d]pyrimidine]
22 | < 100 | CS(=O)(=O)c1ccc(-c2csc3c(OC4CCN(c5nc(-c6ccccc6)no5)CC4)ncnc23)c(F)c1 [Example 64, 5-(4-(7-(2-fluoro-4-methanesulfonyl-phenyl)thieno[3,2-d]pyrimidin-4-yloxy)piperidin-1-yl)-3-phenyl-1,2,4-oxadiazole]
23 | 100 to 1000 | CS(=O)(=O)c1ccc(-c2csc3c(OC4CCN(c5nc(-c6cnccn6)no5)CC4)ncnc23)c(F)c1 [Example 68, 5-(4-(7-(2-fluoro-4-methanesulfonyl-phenyl)thieno[3,2-d]pyrimidin-4-yloxy)piperidin-1-yl)-3-(pyrazin-2-yl)-1,2,4-oxadiazole]
24 | > 1000 | CC(C)c1noc(N2CCC(Oc3ncnc4c(-c5ccc(S(=O)(=O)C(F)(F)F)cc5F)csc34)CC2)n1 [Example 101, 7-(2-fluoro-4-trifluoro(methanesulfonyl)phenyl)-4-[1-(3-isopropyl-[1,2,4]oxadiazol-5-yl)-piperidin-4-yloxy]-thieno[3,2-d]pyrimidine]
25 | < 100 | CS(=O)(=O)c1ccc(-c2csc3c(OC4CCN(c5nc(-c6ccncc6)no5)CC4)ncnc23)c(F)c1 [Example 66, 5-(4-(7-(2-fluoro-4-methanesulfonyl-phenyl)thieno[3,2-d]pyrimidin-4-yloxy)piperidin-1-yl)-3-(pyridin-4-yl)-1,2,4-oxadiazole]
26 | > 1000 | CC(C)c1csc(N2CCC(Oc3ncnc4c(-c5ccc(S(C)(=O)=O)cc5F)csc34)CC2)n1 [Example 93, 7-(2-fluoro-4-methanesulfonyl-phenyl)-4-[1-(4-isopropyl-thiazo-2-yl)piperidin-4-yloxy]-thieno[3,2-d]pyrimidine]
